The assay has as its target T1, PRMT5/MEP50 (Homo sapiens, UniProt O14744).
T1 construct: Flag-PRMT5; 6His-MEP50
As to the kind of experiment: PRMT5 Biochemical Assay (PRMT5/MEP50 enzyme assay on peptide substrate, 3H-SAM Flashplate). The source says:
General Materials. S-adenosylmethionine (SAM), S-adenosylhomocysteine (SAH), bicine, KCl, Tween20, dimethylsulfoxide (DMSO), bovine skin gelatin (BSG), and Tris(2-carboxyethyl)phosphine hydrochloride solution (TCEP) were purchased from Sigma-Aldrich at the highest level of purity possible. ^3H-SAM was purchase from American Radiolabeled Chemicals with a specific activity of 80 Ci/mmol. 384-well streptavidin Flashplates were purchased from PerkinElmer.
Substrates. Peptide representative of human histone H4 residues 1-15 was synthesized with a C-terminal linker-affinity tag motif and a C-terminal amide cap by 21st Century Biochemicals. The peptide was high high-perfomance liquid chromatography (HPLC) purified to greater than 95% purity and confirmed by liquid chromatography mass spectrometry (LC-MS). The sequence was Ac-[…][K-Biot]-amide (SEQ ID NO.:3).
Molecular Biology: Full-length human PRMT5 (NM_006109.3) transcript variant 1 clone was amplified from a fetal brain cDNA library, incorporating flanking 5′ sequence encoding a FLAG tag ([…]) (SEQ ID NO.:4) fused directly to Ala 2 of PRMT5. Full-length human MEP50 (NM_024102) clone was amplified from a human testis cDNA library incorporating a 5′ sequence encoding a 6-histidine tag (MHHHHHH) (SEQ ID NO.:5) fused directly to Arg 2 of MEP50. The amplified genes were sublconed into pENTR/D/TEV (Life Technologies) and subsequently transferred by Gateway™ attL×attR recombination to pDEST8 baculvirus expression vector (Life Technologies).
Protein Expression. Recombinant baculovirus and Baculovirus-Infected Insect Cells (BIIC) were generated according to Bac-to-Bac kit instructions (Life Technologies) and Wasilko, 2006, respectively. Protein over-expression was accomplished by infecting exponentially growing Spodoptera frugiperda (SF9) cell culture at 1.2×10^6cell/ml with a 5000 fold dilution of BIIC stock. Infections were carried out at 27° C. for 72 hours, harvested by centrifugation, and stored at −80° C. for purification.
Protein Purification. […] Flag-PRMT5/6His-MeP50 was eluted with 300 mM Imidazole in the same buffer. The purity of recovered protein was 87%. Reference: Wasilko, D. J. and S. E. Lee: “TIPS: titerless infected-cells preservation and scale-up” Bioprocess J., 5 (2006), pp. 29-32.
General Procedure for PRMT5/MEP50 Enzyme Assays on Peptide Substrates. The assays were all performed in a buffer consisting of 20 mM Bicine (pH=7.6), 1 mM TCEP, 0.005% BSG, and 0.002% Tween20, prepared on the day of use. Compounds in 100% DMSO (1 ul) were spotted into a polypropylene 384-well V-bottom plates (Greiner) using a Platemate Plus outfitted with a 384-channel head (Thermo Scientific). DMSO (1 ul) was added to Columns 11, 12, 23, 24, rows A-H for the maximum signal control and 1 ul of SAH, a known product and inhibitor of PRMT5/MEP50, was added to columns 11, 12, 23, 24, rows I-P for the minimum signal control. A cocktail (40 ul) containing the PRMT5/MEP50 enzyme and the peptide was added by Multidrop Combi (Thermo-Fisher). The compounds were allowed to incubate with PRMT5/MEP50 for 30 min at 25 degrees Celsius, then a cocktail (10 ul) containing ^3H-SAM was added to initiate the reaction (final volume=51 ul). The final concentrations of the components were as follows: PRMT5/MEP50 was 4 nM, ^3H-SAM was 75 nM, peptide was 40 nM, SAH in the minimum signal control wells was 100 uM, and the DMSO concentration was […]. The assays were stopped by the addition of non-radioactive SAM (10 ul) to a final concentration of 600 uM, which dilutes the ^3H-SAM to a level where its incorporation into the peptide substrate is no longer detectable. 50 ul of the reaction in the 384-well polypropylene plate was then transferred to a 384-well Flashplate and the biotinylated peptides were allowed to bind to the streptavidin surface for at least 1 hour before being washed three times with 0.1% Tween20 in a Biotek ELx405 plate washer. […]

T1 sequence (O14744 with tags, fused parts or gaps): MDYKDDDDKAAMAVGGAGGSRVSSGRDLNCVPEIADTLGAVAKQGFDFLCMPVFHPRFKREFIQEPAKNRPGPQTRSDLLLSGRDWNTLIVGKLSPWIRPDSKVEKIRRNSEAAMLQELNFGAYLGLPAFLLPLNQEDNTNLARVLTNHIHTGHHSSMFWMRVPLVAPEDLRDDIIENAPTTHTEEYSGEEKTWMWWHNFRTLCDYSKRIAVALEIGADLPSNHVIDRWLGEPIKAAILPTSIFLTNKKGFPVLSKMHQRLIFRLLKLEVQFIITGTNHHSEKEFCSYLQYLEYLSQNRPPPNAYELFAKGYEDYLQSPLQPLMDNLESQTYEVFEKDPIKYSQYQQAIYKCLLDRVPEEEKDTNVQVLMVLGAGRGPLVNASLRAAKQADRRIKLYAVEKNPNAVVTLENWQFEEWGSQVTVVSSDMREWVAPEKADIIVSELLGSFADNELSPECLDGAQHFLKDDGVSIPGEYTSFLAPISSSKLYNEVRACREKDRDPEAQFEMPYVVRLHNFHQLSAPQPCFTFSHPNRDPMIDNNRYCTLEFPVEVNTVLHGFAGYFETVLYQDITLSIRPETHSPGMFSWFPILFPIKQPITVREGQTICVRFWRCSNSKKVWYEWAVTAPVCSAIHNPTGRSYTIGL
T1 sequence (Q9BQA1 with tags, fused parts or gaps partner): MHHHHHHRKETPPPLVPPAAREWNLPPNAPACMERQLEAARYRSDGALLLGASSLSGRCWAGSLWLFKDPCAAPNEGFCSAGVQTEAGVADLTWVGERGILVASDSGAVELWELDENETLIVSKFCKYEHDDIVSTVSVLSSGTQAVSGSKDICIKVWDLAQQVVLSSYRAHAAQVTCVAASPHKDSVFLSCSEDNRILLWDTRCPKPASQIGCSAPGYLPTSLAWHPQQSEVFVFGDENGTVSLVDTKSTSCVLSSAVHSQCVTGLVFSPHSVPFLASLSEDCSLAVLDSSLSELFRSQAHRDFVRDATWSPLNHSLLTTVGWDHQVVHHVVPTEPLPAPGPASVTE

A word on the IC50: it is the concentration that inhibits the measured activity by half. As to `OC(COc1cccc(-c2ccccc2Oc2ccccc2)c1)CN1CCc2ccccc2C1` (stereo not shown) [Compound 167, 1-(3,4-dihydroisoquinolin-2(1H)-yl)-3-((2′-phenoxy-[1,1′-biphenyl]-3-yl)oxy)propan-2-ol], the IC50 fell in the range of 0.101 to 1 µM. As for `OC(COc1cccc(CNC2CCCCC2)c1)CN1CCc2ccccc2C1` (stereo not shown) [Compound 4], the figure is 0.101 to 1 µM; as for `OC(COc1cccc(-c2cc(C(F)(F)F)ccc2Cl)c1)CN1CCc2ccccc2C1` (stereo not shown) [Compound 62, 1-((2′-chloro-5′-(trifluoromethyl)-[1,1′-biphenyl]-3-yl)oxy)-3-(3,4-dihydroisoquinolin-2(1H)-yl)propan-2-ol], 0.101 to 1 µM. Turning to `OC(COc1cccc(-c2cncc(F)c2)c1)CN1CCc2ccccc2C1` (stereo not shown) [Compound 76], the IC50 fell in the range of 1 to 10 µM. As for `O=C(Cn1ccc2cnc(-c3cccc(OCC(O)CN4CCc5ccccc5C4)c3)nc21)N1CCCCC1` (stereo not shown) [Compound 232], the IC50 was in the range of 0.101 to 1 µM. The figure for `O=C(Cn1cnc2ccc(-c3cccc(OCC(O)CN4CCc5ccccc5C4)c3)cc21)N1CCCC1` (stereo not shown) [Compound 263] is 0.101 to 1 µM.

As for `OC(COCc1cc(-c2ccc(Cl)cc2)no1)CN1CCc2ccccc2C1` (stereo not shown) [Compound 11], the IC50 fell in the range of 0.101 to 1 µM. Consider `Cn1cc2ccc(-c3cc(NCC(O)CN4CCc5ccccc5C4)ncn3)cc2n1` (stereo not shown) [Compound 224], for which the IC50 lay within 0.101 to 1 µM. The figure for `CNC(=O)Cn1ccc2cnc(-c3cccc(OCC(O)CN4CCc5ccccc5C4)c3)nc21` (stereo not shown) [Compound 206] is 1 to 10 µM. Regarding `Cn1cc(-c2cccc(OCC(O)CN3CCc4ccccc4C3)c2)cn1` (stereo not shown) [Compound 44], the IC50 was in the range of 1 to 10 µM.

Consider `O=C(Cn1cnc2ccc(-c3cccc(OCC(O)CN4CCc5ccccc5C4)c3)cc21)N1CCCCC1` (stereo not shown) [Compound 249], for which the IC50 lay within 0.101 to 1 µM. The figure for `OC(COCc1ccc(CN2CCOCC2)cc1)CN1CCc2ccccc2C1` (stereo not shown) [Compound 46] is 1 to 10 µM. As for `CNC(=O)c1cncc(-c2cccc(OCC(O)CN3CCc4ccccc4C3)c2)c1` (stereo not shown) [Compound 182], the figure is 1 to 10 µM.

For the compound `Oc1cccc(-c2cccc(OCC(O)CN3CCc4ccccc4C3)c2)c1` (stereo not shown) [Compound 95], the IC50 is 0.101 to 1 µM. Consider `CC(=O)Nc1cccc(-c2cccc(OCC(O)CN3CCc4ccccc4C3)c2)c1` (stereo not shown) [Compound 169], for which the IC50 was 0.101 to 1 µM. As for `OC(COCc1ccncc1)CN1CCc2ccccc2C1` (stereo not shown) [Compound 284], the figure is 10 to 40 µM; as for `OC(COc1cccc(-c2ccncc2F)c1)CN1CCc2ccccc2C1` (stereo not shown) [Compound 190], 1 to 10 µM. For the compound `OC(COCC1CCCCC1)CN1CCc2ccccc2C1` (stereo not shown) [Compound 294], the IC50 lay within 1 to 10 µM. The figure for `OC(COc1ccc(OCC(O)CN2CCc3ccccc3C2)cc1)CN1CCc2ccccc2C1` (stereo not shown) [Compound 3] is 0.101 to 1 µM; for `CC(=O)c1cccc(-c2cccc(OCC(O)CN3CCc4ccccc4C3)c2)c1` (stereo not shown) [Compound 67] it is 0.101 to 1 µM; for `NC(=O)c1cccc(-c2cccc(OCC(O)CN3CCc4ccccc4C3)c2)c1` (stereo not shown) [Compound 171] it is 0.101 to 1 µM. The figure for `OC(COCc1c(Cl)cccc1Cl)CN1CCc2ccccc2C1` (stereo not shown) [Compound 280] is 1 to 10 µM; for `OC(COc1ccc(Cc2ccccc2)cc1)CN1CCc2ccccc2C1` (stereo not shown) [Compound 10] it is 0.101 to 1 µM. The figure for `Cn1ccc2ccc(-c3cc(NCC(O)CN4CCc5ccccc5C4)ncn3)cc21` (stereo not shown) [Compound 237] is 0.101 to 1 µM. On to `OC(COc1ccc(-c2ccn[nH]2)cc1)CN1CCc2ccccc2C1` (stereo not shown) [Compound 48], for which the IC50 fell in the range of 1 to 10 µM. `O=C(Nc1cccc(OCC(O)CN2CCc3ccccc3C2)c1)c1cnco1` (stereo not shown) [Compound 158]: the IC50 lay within 1 to 10 µM. Regarding `Cn1cnc2ccc(-c3cc(NCC(O)CN4CCc5ccccc5C4)ccn3)cc21` (stereo not shown) [Compound 217], the IC50 lay in the range of 0.101 to 1 µM.

Take `OC(COc1cccc(-c2ccccc2F)c1)CN1CCc2ccccc2C1` (stereo not shown) [Compound 154]: the IC50 is 0.101 to 1 µM. As for `OC(COC1Cc2ccccc2C1)CN1CCc2ccccc2C1` (stereo not shown) [Compound 301], the figure is 1 to 10 µM; as for `CC1c2ccccc2CCN1CC(O)COc1cccc(CNC2CCCC2)c1` (stereo not shown) [Compound 50], 1 to 10 µM; as for `Cc1ccc2c(c1)CN(CC(O)COc1cccc(-c3ccc4ncn(C)c4c3)c1)CC2` (stereo not shown) [Compound 212], 1 to 10 µM. As for `OC(COc1cccc(-c2cnccn2)c1)CN1CCc2ccccc2C1` (stereo not shown) [Compound 155], the figure is 1 to 10 µM; as for `Cn1cnc2ccc(-c3cccc(NCC(O)CN4CCc5ccccc5C4)n3)cc21` (stereo not shown) [Compound 117, 1-(3,4-Dihydroisoquinolin-2(1H)-yl)-3-((6-(1-methyl-1H-benzo[d]imidazol-6-yl)pyridin-2-yl)amino)propan-2-ol], 0.101 to 1 µM. For `CC(=O)N1CCC(n2cnc3cnc(-c4cccc(OCC(O)CN5CCc6ccccc6C5)c4)nc32)CC1` (stereo not shown) [Compound 243], the IC50 was in the range of 0.101 to 1 µM. The figure for `Cn1cc2cc(-c3cccc(OCC(O)CN4CCc5ccccc5C4)c3)ccc2n1` (stereo not shown) [Compound 115] is 1 to 10 µM; for `CC1CN(CC(O)COc2cccc(-c3ccc4ncn(C)c4c3)c2)Cc2ccccc21` (stereo not shown) [Compound 101] it is 1 to 10 µM. Consider `O=C(c1cccc(-c2cccc(OCC(O)CN3CCc4ccccc4C3)c2)c1)N1CCOCC1` (stereo not shown) [Compound 126, (3′-(3-(3,4-dihydroisoquinolin-2(1H)-yl)-2-hydroxypropoxy)-[1,1′-biphenyl]-3-yl)(morpholino)methanone], for which the IC50 lay within 0.101 to 1 µM. As for `CC(=O)N1CCC(n2cnc3ccc(-c4ccnc(NCC(O)CN5CCc6ccccc6C5)c4)cc32)CC1` (stereo not shown) [Compound 242], the figure is 0.101 to 1 µM; as for `Cn1ncc2cnc(-c3cccc(OCC(O)CN4CCc5ccccc5C4)c3)cc21` (stereo not shown) [Compound 248, 1-(3,4-dihydroisoquinolin-2(1H)-yl)-3-(3-(1-methyl-1H-pyrazolo[4,3-c]pyridin-6-yl)phenoxy)propan-2-ol], 0.101 to 1 µM; as for `Cn1cnc2ccc(-c3cccc(OCC(O)CN4CCc5ccc(Cl)cc5C4)c3)cc21` (stereo not shown) [Compound 214], 1 to 10 µM. Regarding `CN(Cc1ccc(OCC(O)CN2CCc3ccccc3C2)cc1)C1CCCC1` (stereo not shown) [Compound 24], the IC50 fell in the range of 1 to 10 µM. Take `CS(=O)(=O)c1ccc(-c2cccc(OCC(O)CN3CCc4ccccc4C3)c2)cc1` (stereo not shown) [Compound 63]: the IC50 is 0.101 to 1 µM. As for `Cc1ccc(-c2cccc(OCC(O)CN3CCc4ccccc4C3)c2)cn1` (stereo not shown) [Compound 78], the figure is 1 to 10 µM. The figure for `COc1cccc2c1CN(CC(O)COc1cccc(-c3ccc4ncn(C)c4c3)c1)CC2` (stereo not shown) [Compound 100] is 1 to 10 µM; for `CN(C)c1ncc(-c2cccc(OCC(O)CN3CCc4ccccc4C3)c2)cn1` (stereo not shown) [Compound 125, 1-(3,4-dihydroisoquinolin-2(1H)-yl)-3-(3-(2-(dimethylamino)pyrimidin-5-yl)phenoxy)propan-2-ol] it is 0.101 to 1 µM.

Take `OC(CNc1cccc(CNC2CCCC2)c1)CN1CCc2ccccc2C1` (stereo not shown) [Compound 39, 1-((3-((cyclopentylamino)methyl)phenyl)amino)-3-(3,4-dihydroisoquinolin-2(1H)-yl)propan-2-ol]: the IC50 was 0.101 to 1 µM. The figure for `O=C(Nc1cc[nH]n1)c1cccc(OCC(O)CN2CCc3ccccc3C2)c1` (stereo not shown) [Compound 274] is 1 to 10 µM; for `CC1c2ccccc2CCN1CC(O)COc1cccc(-c2ccc3ncn(C)c3c2)c1` (stereo not shown) [Compound 80] it is 0.101 to 1 µM.

Consider `O=C(c1cncc(-c2cccc(OCC(O)CN3CCc4ccccc4C3)c2)c1)N1CCCC1` (stereo not shown) [Compound 181], for which the IC50 was 1 to 10 µM.

For the origin of these results see patent US20180298010A1, “PRMT5 INHIBITORS AND USES THEREOF” (Epizyme, Inc., priority 2012, published 2018).
